Results reported in US11051515B2, “3-acyl-benzamides and their use as herbicides” (Bayer Aktiengesellschaft, priority 2017, dated 2021).

Legend:
[1] = test system: ALOMY; experiment: Pre-emergence action against ALOMY; format: in vivo, Alopecurus myosuroides; settings: Alopecurus myosuroides, 504 h; dosage 320 g/ha; pre-emergence; scored visually after 3 weeks vs untreated controls; 100% = plants have died, 0% = like control plants; read-out: Pre-emergence action against ALOMY (herbicidal activity in percent)
Method in brief: (§1)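 Seeds sown in sandy loam in wood-fiber pots and covered with soil. Greenhouse growth; visual damage scored after 3 weeks versus untreated controls (100% = dead, 0% = like control).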

[2] = test system: AVEFA; experiment: Pre-emergence action against AVEFA; format: in vivo, Avena fatua; settings: Avena fatua, 504 h, dosage 320 g/ha, scored visually after 3 weeks vs untreated controls, read-out: Pre-emergence action against AVEFA (herbicidal activity)
Method in brief: as §1

[3] = test system: CYPES; experiment: Pre-emergence action against CYPES; format: in vivo, Cyperus esculentus; settings: Cyperus esculentus, 504 h; pre-emergence, dosage 320 g/ha, scored visually after 3 weeks vs untreated controls; read-out: Pre-emergence action against CYPES (herbicidal activity)
Method in brief: as §1

[4] = test system: ECHCG; experiment: Pre-emergence action against ECHCG; format: in vivo, Echinochloa crus-galli; settings: Echinochloa crus-galli, 504 h; pre-emergence, dosage 320 g/ha, scored visually after 3 weeks vs untreated controls; read-out: Pre-emergence action against ECHCG (herbicidal activity)
Method in brief: as §1

[5] = test system: SETVI; experiment: Pre-emergence action against SETVI; format: in vivo, Setaria viridis; settings: Setaria viridis, 504 h; pre-emergence, dosage 320 g/ha, scored visually after 3 weeks vs untreated controls; read-out: SETVI (Table B8, pre-emergence herbicidal activity)
Method in brief: as §1

[6] = test system: ABUTH; experiment: Pre-emergence action against ABUTH; format: in vivo, Abutilon theophrasti; settings: Abutilon theophrasti, 504 h; pre-emergence, dosage 320 g/ha, scored visually after 3 weeks vs untreated controls; read-out: Pre-emergence action against ABUTH (herbicidal activity)
Method in brief: as §1

[7] = test system: AMARE; experiment: Pre-emergence action against AMARE; format: in vivo, Amaranthus retroflexus; settings: Amaranthus retroflexus, 504 h; pre-emergence, dosage 320 g/ha, scored visually after 3 weeks vs untreated controls; read-out: Pre-emergence action against AMARE (herbicidal activity)
Method in brief: as §1

[8] = test system: MATIN; experiment: Pre-emergence action against MATIN; format: in vivo, Matricaria inodora; settings: Tripleurospermum inodorum, 504 h; Dosage 320 g/ha, pre-emergence
Method in brief: as §1

[9] = test system: PHBPU; experiment: Pre-emergence action against PHBPU; format: in vivo, Pharbitis purpurea; settings: Ipomoea purpurea, 504 h; Dosage 320 g/ha, pre-emergence
Method in brief: as §1

[10] = test system: VIOTR; experiment: Pre-emergence action against VIOTR; format: in vivo, Viola tricolor; settings: Viola tricolor, 504 h; Dosage 320 g/ha, pre-emergence
Method in brief: as §1

[11] = test system: ALOMY; experiment: Post-emergence action against ALOMY; format: in vivo, Alopecurus myosuroides; settings: Alopecurus myosuroides, 504 h; Dosage 80 g/ha, post-emergence
Method in brief: (§2)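 Weeds grown in sandy loam in greenhouse, treated at one-leaf stage (2–3 weeks after sowing) with WP or EC formulations sprayed as aqueous suspension/emulsion at 600 to […] water with 0.2% wetting agent. Visual rating after about 3 weeks versus untreated controls, as % herbicidal action (100% = plants dead, 0% = like control).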

[12] = test system: AVEFA; experiment: Post-emergence action against AVEFA; format: in vivo, Avena fatua; settings: Avena fatua, 504 h; post-emergence, dosage 80 g/ha, visual assessment about 3 weeks after treatment vs untreated controls; read-out: Post-emergence action against AVEFA (herbicidal action in percent)
Method in brief: as §2

[13] = test system: CYPES; experiment: Post-emergence action against CYPES; format: in vivo, Cyperus esculentus; settings: Cyperus esculentus, 504 h; post-emergence, dosage 80 g/ha, visual assessment about 3 weeks after treatment vs untreated controls; read-out: Post-emergence action against CYPES (herbicidal action in percent)
Method in brief: as §2

[14] = test system: ECHCG; experiment: Post-emergence action against ECHCG; format: in vivo, Echinochloa crus-galli; settings: Echinochloa crus-galli, 504 h; post-emergence, dosage 80 g/ha, visual assessment about 3 weeks after treatment vs untreated controls; read-out: Post-emergence action against ECHCG (herbicidal action in percent)
Method in brief: as §2

[15] = test system: LOLMU; experiment: Post-emergence action against LOLMU; format: in vivo, Lolium multiflorum; settings: Lolium multiflorum, 504 h, dosage 80 g/ha, visual assessment about 3 weeks after treatment vs untreated controls, read-out: Post-emergence action against LOLMU (herbicidal action in percent)
Description: Seeds of monocotyledonous and dicotyledonous weed and crop plants are laid out in sandy loam soil in wood-fiber pots, covered with soil and cultivated in a greenhouse under good growth conditions. 2 to 3 weeks after sowing, the test plants are treated at the one-leaf stage. The compounds of the invention, formulated in the form of wettable powders (WP) or as emulsion concentrates (EC), are then sprayed onto the green parts of the plants in the form of an aqueous suspension or emulsion at a water application rate equating to […], with addition of 0.2% wetting agent. After the test plants have been left to stand in the greenhouse under optimal growth conditions for about 3 weeks, the action of the preparations is assessed visually in comparison to untreated controls (herbicidal action in percent (%): 100% activity=the plants have died, 0% activity=like control plants). […] At the same time, inventive compounds leave Gramineae crops such as barley, wheat, rye, millet/Sorghum, corn or rice virtually undamaged when applied post-emergence, even at high active ingredient dosages. In addition, some substances are also harmless to dicotyledonous crops such as soya, cotton, oilseed rape, sugar beet or potatoes. Some of the compounds according to the invention have high selectivity and are therefore suitable for controlling unwanted vegetation in agricultural crops by the post-emergence method. The data of Tables B18 to B34 below illustrate, in an exemplary manner, the […] herbicidal action of the compounds according to the invention, the herbicidal activity being stated in percent.

[16] = test system: SETVI; experiment: Post-emergence action against SETVI; format: in vivo, Setaria viridis; settings: Setaria viridis, 504 h; post-emergence, dosage 80 g/ha, visual assessment about 3 weeks after treatment vs untreated controls; read-out: Post-emergence action against SETVI (herbicidal action in percent)
Method in brief: as §2

[17] = test system: ABUTH; experiment: Post-emergence action against ABUTH; format: in vivo, Abutilon theophrasti; settings: Abutilon theophrasti, 504 h; post-emergence, dosage 80 g/ha, visual assessment about 3 weeks after treatment vs untreated controls; read-out: Post-emergence action against ABUTH (herbicidal action in percent)
Method in brief: as §2

[18] = test system: AMARE; experiment: Post-emergence action against AMARE; format: in vivo, Amaranthus retroflexus; settings: Amaranthus retroflexus, 504 h; post-emergence, dosage 80 g/ha, visual assessment about 3 weeks after treatment vs untreated controls; read-out: Post-emergence action against AMARE (herbicidal action in percent)
Method in brief: as §2

[19] = test system: MATIN; experiment: Post-emergence action against MATIN; format: in vivo, Matricaria inodora; settings: Tripleurospermum inodorum, 504 h; post-emergence, dosage 80 g/ha, visual assessment about 3 weeks after treatment vs untreated controls; read-out: Post-emergence action against MATIN (herbicidal action in percent)
Method in brief: as §2

[20] = test system: PHBPU; experiment: Post-emergence action against PHBPU; format: in vivo, Pharbitis purpurea; settings: Ipomoea purpurea, 504 h; post-emergence, dosage 80 g/ha
Method in brief: as §2

[21] = test system: STEME; experiment: Post-emergence action against STEME; format: in vivo, Stellaria media; settings: Stellaria media, 504 h; post-emergence, dosage 80 g/ha
Method in brief: as §2

[22] = test system: VIOTR; experiment: Post-emergence action against VIOTR; format: in vivo, Viola tricolor; settings: Viola tricolor, 504 h; post-emergence, dosage 80 g/ha
Method in brief: as §2

[23] = test system: VERPE; experiment: Post-emergence action against VERPE; format: in vivo, Veronica persica; settings: Veronica persica, 504 h, dosage 80 g/ha
Method in brief: as §2

Q: Which pest or weed control at 320 g/ha [1] does the source give for `Cc1c(C(=O)Nc2nnnn2C)ccc(C(F)(F)F)c1C(=O)C1CC1` [1-18, 3-(cyclopropylcarbonyl)-2-methyl-N-(1-methyl-1H-tetrazol-5-yl)-4-(trifluoromethyl)benzamide] here?
A: The pest or weed control at 320 g/ha was 100%.

Q: And the pest or weed control at 320 g/ha [2]?
A: Its pest or weed control at 320 g/ha is 100%.

Q: And the pest or weed control at 320 g/ha [3]?
A: Its pest or weed control at 320 g/ha is 90%.

Q: And the pest or weed control at 320 g/ha [4]?
A: Its pest or weed control at 320 g/ha is 100%.

Q: What about the pest or weed control at 320 g/ha [5] of the same compound?
A: Its pest or weed control at 320 g/ha is 100%.

Q: And the pest or weed control at 320 g/ha [6]?
A: The pest or weed control at 320 g/ha was 100%.

Q: And the pest or weed control at 320 g/ha [7]?
A: The pest or weed control at 320 g/ha was 100%.

Q: And the pest or weed control at 320 g/ha [8]?
A: The pest or weed control at 320 g/ha was 100%.

Q: What about the pest or weed control at 320 g/ha [9] of the same compound?
A: Its pest or weed control at 320 g/ha is 90%.

Q: And the pest or weed control at 320 g/ha [10]?
A: Its pest or weed control at 320 g/ha is 100%.

Q: And the pest or weed control at 80 g/ha [11]?
A: The pest or weed control at 80 g/ha was 100%.

Q: What about the pest or weed control at 80 g/ha [12] of the same compound?
A: Its pest or weed control at 80 g/ha is 100%.

Q: What about the pest or weed control at 80 g/ha [13] of the same compound?
A: Its pest or weed control at 80 g/ha is 90%.

Q: And the pest or weed control at 80 g/ha [14]?
A: The pest or weed control at 80 g/ha was 90%.

Q: And the pest or weed control at 80 g/ha [15]?
A: The pest or weed control at 80 g/ha was 90%.

Q: What about the pest or weed control at 80 g/ha [16] of the same compound?
A: Its pest or weed control at 80 g/ha is 100%.

Q: What about the pest or weed control at 80 g/ha [17] of the same compound?
A: Its pest or weed control at 80 g/ha is 80%.

Q: What about the pest or weed control at 80 g/ha [18] of the same compound?
A: The pest or weed control at 80 g/ha was 90%.

Q: And the pest or weed control at 80 g/ha [19]?
A: The pest or weed control at 80 g/ha was 100%.

Q: What about the pest or weed control at 80 g/ha [20] of the same compound?
A: The pest or weed control at 80 g/ha was 100%.

Q: And the pest or weed control at 80 g/ha [21]?
A: Its pest or weed control at 80 g/ha is 100%.

Q: And the pest or weed control at 80 g/ha [22]?
A: The pest or weed control at 80 g/ha was 100%.

Q: What about the pest or weed control at 80 g/ha [23] of the same compound?
A: Its pest or weed control at 80 g/ha is 100%.
